According to ChEMBL document CHEMBL5046262, “Fragment-Based Discovery of MRTX1719, a Synthetic Lethal Inhibitor of the PRMT5•MTA Complex for the Treatment of MTAP-Deleted Cancers” (J Med Chem, 2022):
“And” between values parts separate entries of the source, which are not always exact repeats. Equal values may be shown once.

What was measured:
[1] = Efflux ratio of apparent permeability across basolateral to apical side over apical to basolateral side in dog MDCKII-MDR1 cells at 2 uM incubated for 2.5 hrs by LC-MS/MS analysis; type: ADME, cell-based, Canis lupus familiaris, MDCK-MDR1; conditions: for efflux ratio at 2.5 h, 2 µM: MDCK-MDR1; for Ratio: mdck-mdr1, 2.5 h, 2 µM, 2.5 h
[2] = target: T1, Protein arginine N-methyltransferase 5 (Homo sapiens, UniProt O14744)
[3] = species: Homo sapiens; assay: Selectivity ratio of IC50 for inhibition of human PRMT5 co-complexed with MEP50 in absence of MTA to IC50 for inhibition of MTA-bound human PRMT5 co-complexed with MEP50
[4] = Apparent permeability across apical to basolateral side in dog MDCKII-MDR1 cells at 2 uM incubated for 2.5 hrs by LC-MS/MS analysis; type: ADME, cell-based, Canis lupus familiaris, MDCK-MDR1; conditions: for Papp A→B at 2.5 h, 2 µM: MDCK-MDR1
[5] = target: T1, Protein arginine N-methyltransferase 5; remark: listed apart in the source
[6] = target: PRMT5/MEP50 complex (Homo sapiens, UniProt O14744); assay: Inhibition of streptavidin sensor chip immobilized biotinylated human PRMT5/MEP50 assessed as dissociation constant by SPR analysis; type: protein-complex assay
[7] = system: HCT-116; assay: Antiproliferative activity against MTAP knockout human HCT-116 cells assessed as reduction in cell viability incubated for 5 days followed by replacement with fresh medium containing compound and measured after 5 days by CTG assay; type: functional, cell-based
[8] = target: T1, Protein arginine N-methyltransferase 5; assay: Inhibition of PRMT5 methyltransferase activity in human HCT-116 cells expressing wild type MTAP assessed as inhibition of PRMT5- mediated SDMA modification level incubated for 96 hrs by Western blot analysis; type: cell-based
[9] = Intrinsic clearance in human hepatocytes; type: ADME, cell-based, Hepatocyte; conditions: read-out: CLH
[10] = system: HCT-116; assay: Antiproliferative activity against human HCT-116 cells expressing wild type MTAP assessed as reduction in cell viability incubated for 5 days followed by replacement with fresh medium containing compound and measured after 5 days by CTG assay; type: functional, cell-based
[11] = Intrinsic clearance in mouse hepatocytes; type: ADME, cell-based, Hepatocyte; conditions: read-out: CLH
[12] = target: T1, Protein arginine N-methyltransferase 5; assay: Inhibition of PRMT5 methyltransferase activity in MTAP knockout human HCT-116 cells assessed as inhibition of PRMT5- mediated SDMA modification level incubated for 96 hrs by Western blot analysis; type: cell-based
[13] = Half life in CD-1 mouse at 3 mg/kg, iv measured upto 24 hrs by LC-MS/MS analysis; type: ADME, organism-based; conditions: in vivo
[14] = AUCinfinity in CD-1 mouse at 30 mg/kg, po administered via gavage measured upto 24 hrs by LC-MS/MS analysis; type: ADME, organism-based; set-up: route oral, dose 30 mg/kg, time <=24; conditions: in vivo
[15] = Oral bioavailability in beagle dog at 10 mg/kg administered via gavage measured upto 24 hrs by LC-MS/MS analysis; type: ADME, organism-based, Canis lupus familiaris; conditions: in vivo
[16] = Volume of distribution at steady state in cynomolgus monkey at 2 mg/kg, iv measured upto 24 hrs by LC-MS/MS analysis; type: ADME, organism-based, Macaca fascicularis; conditions: in vivo, read-out: Vdss
[17] = Cmax in beagle dog at 10 mg/kg, po administered via gavage measured upto 24 hrs by LC-MS/MS analysis; type: ADME, organism-based, Canis lupus familiaris; set-up: route oral, dose 10 mg/kg, time <=24; conditions: in vivo
[18] = Total clearance in cynomolgus monkey at 2 mg/kg, iv measured upto 24 hrs by LC-MS/MS analysis; type: ADME, organism-based, Macaca fascicularis; conditions: in vivo
[19] = Half life in cynomolgus monkey at 2 mg/kg, iv measured upto 24 hrs by LC-MS/MS analysis; type: ADME, organism-based, Macaca fascicularis; conditions: in vivo
[20] = AUCinfinity in beagle dog at 10 mg/kg, po administered via gavage measured upto 24 hrs by LC-MS/MS analysis; type: ADME, organism-based, Canis lupus familiaris; set-up: route oral, dose 10 mg/kg, time <=24; conditions: in vivo
[21] = Volume of distribution at steady state in CD-1 mouse at 3 mg/kg, iv measured upto 24 hrs by LC-MS/MS analysis; type: ADME, organism-based; conditions: in vivo, read-out: Vdss
[22] = Total clearance in beagle dog at 2 mg/kg, iv measured upto 24 hrs by LC-MS/MS analysis; type: ADME, organism-based, Canis lupus familiaris; conditions: in vivo
[23] = Total clearance in CD-1 mouse at 3 mg/kg, iv measured upto 24 hrs by LC-MS/MS analysis; type: ADME, organism-based; conditions: in vivo
[24] = Half life in beagle dog at 2 mg/kg, iv measured upto 24 hrs by LC-MS/MS analysis; type: ADME, organism-based, Canis lupus familiaris; conditions: in vivo
[25] = Oral bioavailability in CD-1 mouse at 30 mg/kg administered via gavage measured upto 24 hrs by LC-MS/MS analysis; type: ADME, organism-based; conditions: in vivo
[26] = Cmax in CD-1 mouse at 30 mg/kg, po administered via gavage measured upto 24 hrs by LC-MS/MS analysis; type: ADME, organism-based; set-up: route oral, dose 30 mg/kg, time <=24; conditions: in vivo
[27] = Oral bioavailability in cynomolgus monkey at 10 mg/kg administered via gavage measured upto 24 hrs by LC-MS/MS analysis; type: ADME, organism-based, Macaca fascicularis; conditions: in vivo
[28] = Volume of distribution at steady state in beagle dog at 2 mg/kg, iv measured upto 24 hrs by LC-MS/MS analysis; type: ADME, organism-based, Canis lupus familiaris; conditions: in vivo, read-out: Vdss

T1 sequence (O14744 whole entry): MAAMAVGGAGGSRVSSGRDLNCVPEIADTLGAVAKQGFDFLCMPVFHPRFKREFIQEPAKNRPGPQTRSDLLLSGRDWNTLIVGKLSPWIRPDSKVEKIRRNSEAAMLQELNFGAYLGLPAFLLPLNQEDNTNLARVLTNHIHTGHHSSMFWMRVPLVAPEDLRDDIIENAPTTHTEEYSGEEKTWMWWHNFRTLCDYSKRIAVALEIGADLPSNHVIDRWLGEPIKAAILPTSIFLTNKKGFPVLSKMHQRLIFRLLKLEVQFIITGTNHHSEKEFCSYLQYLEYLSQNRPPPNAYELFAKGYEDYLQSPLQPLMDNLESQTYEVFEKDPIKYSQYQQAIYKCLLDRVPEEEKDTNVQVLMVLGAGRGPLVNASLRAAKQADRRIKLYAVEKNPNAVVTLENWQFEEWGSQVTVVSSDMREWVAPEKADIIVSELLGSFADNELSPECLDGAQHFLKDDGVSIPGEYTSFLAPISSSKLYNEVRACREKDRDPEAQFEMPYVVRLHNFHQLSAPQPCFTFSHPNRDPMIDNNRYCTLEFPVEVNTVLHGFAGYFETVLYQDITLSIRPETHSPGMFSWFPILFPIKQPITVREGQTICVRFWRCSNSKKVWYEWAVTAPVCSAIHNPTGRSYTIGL
Sequence of PRMT5/MEP50 complex (O14744 whole entry): as above
Sequence of PRMT5/MEP50 complex (Q9BQA1 whole entry, further chain): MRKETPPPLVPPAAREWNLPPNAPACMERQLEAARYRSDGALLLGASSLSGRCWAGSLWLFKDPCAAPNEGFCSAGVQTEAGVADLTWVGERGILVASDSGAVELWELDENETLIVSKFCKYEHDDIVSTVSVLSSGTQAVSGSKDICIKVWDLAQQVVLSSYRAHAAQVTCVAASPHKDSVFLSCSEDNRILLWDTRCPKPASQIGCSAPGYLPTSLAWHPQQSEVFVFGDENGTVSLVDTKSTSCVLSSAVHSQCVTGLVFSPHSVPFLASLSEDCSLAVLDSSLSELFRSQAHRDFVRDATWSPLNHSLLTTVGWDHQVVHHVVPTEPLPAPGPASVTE

| Structure (SMILES) | efflux ratio at 2.5 h, 2 µM [1] | IC50 [2] [nM] | Ratio IC50 [3] | Papp A→B at 2.5 h, 2 µM [4] [×10⁻⁶ cm/s] | IC50 [5] [nM] | IC50 [7] | IC50 [8] | CLint scaled [9] [mL/min/kg] | IC50 [10] | CLint scaled [11] [mL/min/kg] | further results |
| --- | --- | --- | --- | --- | --- | --- | --- | --- | --- | --- | --- |
| CCCn1cc(-c2ccc3c(=O)[nH]nc(CN)c3c2)cn1 | 2.7 | 7650 | 24 | 3.2 | 320 |  |  |  |  |  |  |
| CSC[C@H]1O[C@@H](n2cnc3c(N)ncnc32)[C@H](O)[C@@H]1O [METHYLTHIOADENOSINE] |  |  |  |  |  |  |  |  |  |  | Kd [6]: 661 nM |
| NCc1n[nH]c(=O)c2ccc(-c3cccnc3)cc12 | 0.7 | 19000 | 21 | 2.8 | 910 |  |  |  |  |  |  |
| CC(C)n1cc(-c2ccc3c(=O)[nH]nc(CN)c3c2)cn1 | 20.1 | 11400 | 17 | 1.31 | 670 |  |  |  |  |  |  |
| Cc1cccc(-c2c(-c3ccc4c(=O)[nH]nc(CN)c4c3)cnn2C)c1C#N | 36 |  |  | 0.6 | 3000 | 365 nM | 8830 nM | 29 | > 10000 nM | 296 | IC50 [12]: 101 nM |
| CCn1cc(-c2ccc3c(=O)[nH]nc(CN)c3c2)cn1 | 6.2 | 10600 | 21 | 2 | 510 |  |  |  |  |  |  |
| Cn1ncc(-c2ccc3c(=O)[nH]nc(CN)c3c2)c1-c1c(F)cc2ccccc2c1C#N | 85 |  |  | 0.4 |  |  | 569 nM and > 1000 nM | 18 | 1020 nM and 5930 nM | 255 | half-life [13]: 1.5 h; AUC(0-inf) [14]: 2730 ng·h/mL; bioavailability [15]: 60%; Ratio [1]: 136; Vd [16]: 3.3 L/kg; Cmax [17]: 880 ng/mL; clearance [18]: 24 mL/min/kg; half-life [19]: 2.6 h; Papp ([4]; mdck-mdr1, 2.5 h, 2 µM, 2.5 h): 0.3 ×10⁻⁶ cm/s; AUC(0-inf) [20]: 4800 ng·h/mL; Vd [21]: 5.3 L/kg; clearance [22]: 21 mL/min/kg; clearance [23]: 78 mL/min/kg; half-life [24]: 3.9 h; bioavailability [25]: 34%; Cmax [26]: 590 ng/mL; bioavailability [27]: 28%; Vd [28]: 4.4 L/kg |
| NCc1n[nH]c(=O)c2ccc(-c3ccccc3)cc12 |  |  | 3 |  |  |  |  |  |  |  |  |
| Cn1ncc(-c2ccc3c(=O)[nH]nc(CN)c3c2)c1-c1sc2ccccc2c1C#N | 58 |  |  | 0.6 |  | 58 nM | > 1000 nM | 41 | 5800 nM | 280 | IC50 [12]: 5 nM |
| NCc1n[nH]c(=O)c2ccc(-c3cncs3)cc12 | 0.6 |  |  | 14.6 |  |  |  |  |  |  |  |
| CCc1cccc(-c2c(-c3ccc4c(=O)[nH]nc(CN)c4c3)cnn2C)c1C#N | 35 |  |  | 0.3 | 2000 | 175 nM | 3210 nM | 18 | > 10000 nM | 523 | IC50 [12]: 79 nM |
| NCc1n[nH]c(=O)c2ccc(-c3ccccn3)cc12 | 1.2 | > 100000 |  | 9.3 | 95800 |  |  |  |  |  |  |
| Cn1ncc(-c2ccc3c(=O)[nH]nc(CN)c3c2)c1-c1ccc2ccccc2c1C#N | 99 |  |  | 0.4 |  | 49 nM | 1210 nM | < 18 | 1980 nM | 340 | IC50 [12]: 11 nM |
| Cn1ncc(-c2ccc3c(=O)[nH]nc(CN)c3c2)c1-c1c(F)ccc(OC2CC2)c1C#N | 143 |  |  | 0.2 |  | 43 nM and 17 nM and 112 nM | 1050 nM and 4480 nM | 18 | 2180 nM and 3620 nM and 4210 nM | 143 | Ratio [1]: 123 and 150 |
